Results from paper PMC2904697, “A Screen for Kinetochore-Microtubule Interaction Inhibitors Identifies Novel Antitubulin Compounds” (PLoS ONE, 2010).

Columns and labels:
HeLa cells = experiment: Mitotic delay and cell death in G1/S-synchronized HeLa cells (time-lapse videomicroscopy); type: cell-based, human
Experimental: At compound B concentrations of 5 µmol/l and above, the cells arrested robustly in metaphase (∼15 h) and then underwent cell death, as diagnosed by cell shrinkage (Fig. 3B). […] This phenotype is indicative of chromatids being unable to bind to spindle MTs and/or of spindle defects, as observed with nocodazole (Fig. 3C). […] Because drugs that inhibit tubulin polymerization also destabilize MTs, we next probed whether compound B destabilized metaphase spindles. We arrested HeLa cells in metaphase using 10 µmol/l of proteosome inhibitor MG132. […] Thus, compound B prevents tubulin assembly and destabilizes spindle MTs in cells.
Next, we determined whether the elevated antitubulin activities of compounds A6, A8, D7 and E7 (versus compound B), and the discrepancies in activity between the compounds themselves were reflected in their effects on mitosis. G1/S synchronized HeLa cells were released into growth medium containing 100 or 500 nmol/l of these compounds or compound B; the duration of the mitotic delay by the compounds and the percentage of cells undergoing subsequent cell death were scored. […] The four compounds triggered mitotic delays to an extent that directly reflects their activities in vitro (compare Fig. 6E and Fig. 6, panels B to D). […] Of note, each of our compounds acted in cells with an efficacy exceeding those measured in vitro (compare Fig. 6E and Fig. 5). This discrepancy may be due to increased compound:tubulin ratios in cells. Alternatively, the compounds may be modified intracellularly, resulting in enhanced activity. Because compound B and the four second-generation compounds are 6-furan-2-yl-3-methyl-4-oxo-4,5,6,7-tetrahydro-1H-indole-2-carboxylic acid derivatives, we have named these tubulin inhibitors “furan-metoticas”.

[1] = system: hTERT RPE-1, HCT-116 and A2780 cell lines; experiment: Viability analysis (CellTiter 96 Assay); type: cell-based; conditions: Homo sapiens, 72 h, A2780 and HCT-116 cells, 3 d, 1–1000 nmol/l, read-out: IC50 for killing of cells (viability)
Experimental: RPE, a telomerase-immortalized cell line derived from retinal pigment epithelium, served as the non-cancer control. Antitubulin agents colchicine and nocodazole were used as controls for drug activity. The RPE, A2780, and HCT-116 cells were efficiently killed by compound A8 and the control drugs.
Viability analysis in the presence of antitubulin drugs was performed on hTERT RPE-1 (ATCC), HCT-116 (ATCC), and A2780 (EACC) cell lines. Cell lines were authenticated by PCR [22]. Absence of eight commonly encountered mycoplasma species was confirmed by PCR [23]. Experiments were performed with freshly thawed cells, which were seeded in 96-well MICROTEST tissue culture plates (Falcon) at ∼500 cells/well and grown at 37°C. After 6 h, nocodazole, colchicine or compound A8 were added (1–1000 nmol/l). The cells were incubated for 3 d at 37°C and then assayed for viability (CellTiter 96 Assay, Promega).

[2] = system: recombinant CLIP-170^488 binding to taxol-stabilized MTs; experiment: CLIP-170^488 binding to taxol-stabilized MTs (specificity control); conditions: compound B at 50 µmol/l
Text: Figure 2 Compound B prevents the recombinant Ndc80 kinetochore complex from binding to taxol-stabilized microtubules. Effect of compound B (50 µmol/l) on binding of the Ndc80^488 complex to rhodamine-labeled, taxol-stabilized MTs as assayed using inverted wide-field fluorescence microscopy. The scale bar represents 4 µm (A). Structure of compound B; 6-furan-2-yl-3-methyl-4-oxo-4,5,6,7-tetrahydro-1H-indole-2-carboxylic acid (tetrahydro-furan-2-yl)methyl ester (B). Measurement of the IC50 value of compound B using total internal reflection fluorescence microscopy. The scale bar represents 4 µm (C). Compound B (50 µmol/l) prevented MT-associating protein CLIP-170^488, used as a specificity control, from binding to taxol-stabilized MTs. The scale bar represents 4 µm (D). […] The scale bar represents 4 µm (E).
A compound inhibiting the Ndc80^488 complex-MT interaction could act either against the complex or against the MTs. To probe the specificity of compound B toward the Ndc80^488 complex, we examined its ability to inhibit MT binding of recombinant CLIP-170^488, a MT plus-end tracking protein.

SMILES | Effect on mitosis at 500 nmol/l (HeLa cells; HeLa released from G1/S, 500 nmol/l) | IC50 [1] [nM] | Concentration inducing a mitotic delay (HeLa cells; HeLa released from G1/S) [µmol/L] | Concentration inducing cell death (HeLa cells; HeLa released from G1/S) [µmol/L] | Duration of metaphase arrest (HeLa cells; HeLa, compound concentrations of 5 µmol/l and above, followed by cell death) [h] | Effect on binding of CLIP-170^488 to taxol-stabilized MTs [2]
CCSCCOC(=O)c1[nH]c2c(c1C)C(=O)C[C@@H](c1ccco1)C2 [A8] | robust mitotic block, followed by cell death | 25 |  |  |  | 
Cc1c(C(=O)OCC2CCCO2)[nH]c2c1C(=O)CC(c1ccco1)C2 (stereo not drawn) [compound B, 6-furan-2-yl-3-methyl-4-oxo-4,5,6,7,-tetrahydro-1H-indole-2-carboxylic acid tetrahydro-furan-2-ylmethyl ester] |  |  | 1 to 10 | 5 to 10 | ~15 | prevented
